{"source": "patent US4818764A", "about": "“Imidazoline derivative and method of treating depression therewith” (priority 1980, dated 1989)", "key": {"[1]": {"molecular_target": "T1, presynaptic α2-adrenoreceptor (rat vas deferens) (Rattus norvegicus, UniProt P22909)", "T1 construct": "Pre- and postsynaptic α-adrenoreceptor antagonism in isolated tissue experiments; from tissue; host or cells: isolated rat vas deferens", "T1 sequence (P22909 1-465)": "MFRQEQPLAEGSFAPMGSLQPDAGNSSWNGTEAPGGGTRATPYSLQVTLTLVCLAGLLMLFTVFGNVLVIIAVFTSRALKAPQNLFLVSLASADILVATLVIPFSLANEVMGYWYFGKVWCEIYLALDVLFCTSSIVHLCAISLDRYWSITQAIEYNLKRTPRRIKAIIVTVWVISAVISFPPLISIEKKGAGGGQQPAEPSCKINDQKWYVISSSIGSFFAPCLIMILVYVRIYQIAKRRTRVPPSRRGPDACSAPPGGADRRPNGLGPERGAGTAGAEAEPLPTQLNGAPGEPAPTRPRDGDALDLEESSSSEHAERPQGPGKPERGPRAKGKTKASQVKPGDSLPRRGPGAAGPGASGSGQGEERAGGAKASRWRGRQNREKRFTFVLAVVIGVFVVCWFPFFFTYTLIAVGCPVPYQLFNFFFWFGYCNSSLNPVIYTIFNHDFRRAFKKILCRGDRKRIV", "assay": "Presynaptic α-adrenoreceptor antagonism vs clonidine in isolated rat vas deferens (0.1 Hz stimulation)", "assay_type": "cell-based", "description": "(§1) This in vitro model is particularly useful as an initial screen for studying presynaptic activity in isolation since the physiological nature of the vas deferens tissue is such that the post synaptic receptors located therein are particularly inaccessible to exogenous agents. In consequence an alternative tissue, the rat anococcygeus muscle is used to establish postsynaptic α-adrenoreceptor activity. Antagonism of noradrenaline contractions is used to determine pA2 values at postsynaptic α-adrenoreceptors. The ratio of presynaptic α-adrenoreceptor antagonism (versus clonidine on the rat vas deferens) to postsynaptic α-adrenoreceptor antagonism (versus noradrenaline contractions on the rat anococcygeus muscle) is used to assess adrenoreceptor selectivity."}, "[2]": {"test_system": "presynaptic α-adrenoreceptor", "assay": "Presynaptic α-adrenoreceptor antagonism in the pithed rat: vas deferens, intravenous activity", "assay_type": "in vivo", "conditions": "for i.v. dose of antagonist causing 50% reversal of clonidine block on vas deferens: pithed rat, clonidine 100 μg/kg i.v., cumulative i.v. dosing, mean of minimum 4 rats", "procedure": "This test model extends the evaluation of presynaptic α-adrenoreceptor antagonism versus clonidine on the rat vas deferens to the in vivo situation. Blood pressure and stimulation induced contractions of the vas deferens were monitored in pithed rats using the method of Brown, J., Doxey, J. C., Handley, S. and Virdee, N., Recent Advances in the Pharmacology of Adrenoceptors, Elsevier North Holland, 1978. Clonidine (100 μg/kg, i.v.) causes a prolonged pressor response and a prolonged inhibition of vas deferens contractions. The test drugs were injected intravenously in a cumulative dosing schedule and their abilities to reverse the inhibition of hypogastric nerve stimulation reflected their presynaptic antagonism."}, "[3]": {"test_system": "clonidine-induced hypothermia", "assay": "Antagonism of clonidine-induced hypothermia in mice", "assay_type": "in vivo"}, "[4]": {"test_system": "presynaptic α-adrenoreceptor", "assay": "Reversal of guanabenz block of the anococcygeus muscle of the pithed rat, intravenous", "assay_type": "in vivo", "conditions": "for Intravenous dose of antagonist causing 50% reversal of guanabenz block of anococcygeus muscle: pithed rat, guanabenz acetate 30 μg/kg i.v."}, "[5]": {"test_system": "postsynaptic α-adrenoreceptors (rat anococcygeus muscle)", "assay": "Postsynaptic α-adrenoreceptor antagonism vs noradrenaline contractions in isolated rat anococcygeus muscle", "assay_type": "cell-based", "conditions": "mean of minimum 5 experiments, \"<\" means inactive at a concentration which would have given the pA indicated", "description": "as §1"}, "DOCA hypertensive rats": {"test_system": "DOCA hypertensive rats", "assay": "Effect on blood pressure and heart rate of conscious DOCA hypertensive rats", "assay_type": "in vivo, rat", "description": "Results are given in Table 5 in terms of peak percentage fall in B.P."}, "[6]": {"test_system": "presynaptic α-adrenoreceptor", "assay": "Presynaptic α-adrenoreceptor antagonism in the pithed rat: vas deferens, oral activity", "assay_type": "in vivo", "conditions": "1.0 and 5.0 mg/kg", "description": "Thirty minutes after oral administration, the rats were pithed so as to allow electrically-induced contractions of the vas deferens to be studied in situ."}, "[7]": {"test_system": "postsynaptic α-adrenoreceptor", "assay": "Antagonism of clonidine postsynaptic effects (blood pressure increases) after oral dosing, pithed rat", "assay_type": "in vivo"}, "[8]": {"test_system": "postsynaptic α-adrenoreceptor", "assay": "Pressor responses in the pithed rat on intravenous administration", "assay_type": "in vivo", "conditions": "1-10 mg/kg, i.v."}, "[9]": {"test_system": "presynaptic α-adrenoreceptor", "assay": "Reversal of clonidine inhibition of the anococcygeus muscle of the pithed rat, intravenous", "assay_type": "in vivo", "conditions": "0.3-1.0 mg/kg, i.v.; 1 Hz stimulation", "description": "In contrast to the rat vas deferens, both the pre- and postsynaptic adrenoreceptors of the rat anococcygeus muscle are readily accessible to exogenously applied agents and therefore this test can be used to distinguish selective presynaptic α-adrenoreceptor antagonists from non-selective agents. Contractions of the rat anococcygeus muscle induced by low frequency (1 Hz) electrical stimulation of spinal sympathetic outflow are inhibited by low doses of clonidine. Only selective presynaptic α-adrenoreceptor antagonists will reverse the inhibitory effects of clonidine."}}, "note": "“Also recorded” adds a separate entry of the source. Structures can show the parent of a compound that is named as a salt.", "data": [{"smiles": "c1ccc2c(c1)OCC(C1=NCCN1)O2", "note": "(stereo not drawn) [Compound A, 2-[2-(1,4-Benzodioxanyl)]-2-imidazoline hydrochloride]", "values": [{"measurement": "presynaptic α-adrenoreceptor antagonist potency, rank among compounds studied", "setting": "[1]; Table 1", "value": "the most potent presynaptic α-adrenoreceptor antagonist"}, {"measurement": "presynaptic α-adrenoreceptor antagonist potency, rank among compounds studied", "setting": "[2]; pithed rat vas deferens, i.v., Table 2", "value": "clearly the most potent presynaptic α-adrenoreceptor antagonist of those studied"}, {"measurement": "i.v. dose of antagonist causing 50% reversal of clonidine block on vas deferens", "setting": "[2]", "value": 0.009, "unit": "mg/kg"}, {"measurement": "reversal of clonidine-induced hypothermia (in words)", "setting": "[3]; 0.1-1.0 mg/kg, i.v.", "value": "statistically significant dose-related reversal"}, {"measurement": "presynaptic α-adrenoreceptor antagonist potency, rank among compounds studied", "setting": "[4]; pithed rat anococcygeus, i.v.", "value": "the most potent presynaptic α-adrenoreceptor antagonist studied"}, {"measurement": "Intravenous dose of antagonist causing 50% reversal of guanabenz block of anococcygeus muscle", "setting": "[4]", "value": 0.021, "unit": "mg/kg"}, {"measurement": "Postsynaptic antagonism pA2 vs Noradrenaline (anococcygeus)", "setting": "[5]", "value": 6.2}, {"measurement": "peak percentage fall in B.P.", "setting": "DOCA hypertensive rats; 1.0 mg/kg, oral", "value": -4, "unit": "%"}, {"measurement": "blood pressure effect (in words)", "setting": "DOCA hypertensive rats; 1.0 mg/kg, oral, hydrochloride", "value": "did not significantly alter blood pressure; also recorded: does not possess antihypertensive activity"}, {"measurement": "peak percentage fall in B.P.", "setting": "DOCA hypertensive rats; 5.0 mg/kg, oral", "value": -28, "unit": "%"}, {"measurement": "peak percentage fall in B.P.", "setting": "DOCA hypertensive rats; 20.0 mg/kg, oral", "value": -39, "unit": "%"}, {"measurement": "mean arterial blood pressure effect (in words)", "setting": "DOCA hypertensive rats; 5.0 and 20.0 mg/kg, oral, hydrochloride", "value": "dose-related falls in mean arterial blood pressure"}, {"measurement": "heart rate effect (in words)", "setting": "DOCA hypertensive rats; three doses (1.0, 5.0 and 20.0 mg/kg), oral", "value": "No significant effect on heart rate"}, {"measurement": "antagonism of the presynaptic action of clonidine (in words)", "setting": "[6]", "value": "dose-dependent competitive antagonism"}, {"measurement": "inhibition of the clonidine postsynaptic effects (blood pressure increases)", "setting": "[7]; 1.0 mg/kg p.o.", "value": "No inhibition"}, {"measurement": "inhibition of the clonidine postsynaptic effects (blood pressure increases)", "setting": "[7]; 5.0 mg/kg p.o.", "value": "some antagonism was observed"}]}, {"smiles": "CC1(C2=NCCN2)Oc2ccccc2O1", "note": "[Compound B, 2-[2-(2-methyl-1,3-benzodioxyl)]-2-imidazoline hydrochloride]", "values": [{"measurement": "Kb", "setting": "[1]; isolated rat vas deferens, 0.1 Hz, mean of minimum 5 experiments, \"<\" means inactive at a concentration which would have given the pA indicated, read-out: Presynaptic antagonism pA2 vs Clonidine (vas deferens) (converted)", "value": 0.631, "unit": "µM"}, {"measurement": "Pre/postsynaptic ratio", "setting": "[1]; presynaptic antagonism (vs clonidine, vas deferens) to postsynaptic antagonism (vs noradrenaline, anococcygeus)", "value": "> 67"}, {"measurement": "maximum reversal of the inhibitory effects of clonidine on hypogastric nerve stimulation", "setting": "[2]; cumulative i.v. dose 14.4 mg/kg", "value": 66, "unit": "%"}, {"measurement": "i.v. dose of antagonist causing 50% reversal of clonidine block on vas deferens", "setting": "[2]", "value": 5.60, "unit": "mg/kg"}, {"measurement": "effect on clonidine-induced hypothermia (in words)", "setting": "[3]; 30 mg/kg i.v.", "value": "potentiated the clonidine-induced hypothermia"}, {"measurement": "reversal of clonidine-induced hypothermia (in words)", "setting": "[3]; 1-10 mg/kg, i.v.", "value": "partial reversal"}, {"measurement": "reversal of clonidine-induced hypothermia compared with vehicle (significance, in words)", "setting": "[3]; 1-10 mg/kg, i.v.", "value": "not significantly different from animals treated with vehicle"}, {"measurement": "Postsynaptic antagonism pA2 vs Noradrenaline (anococcygeus)", "setting": "[5]", "value": "< 4.4"}, {"measurement": "blood pressure effect (in words)", "setting": "DOCA hypertensive rats; 1.0 mg/kg, oral", "value": "significant antihypertensive effect"}, {"measurement": "peak percentage fall in B.P.", "setting": "DOCA hypertensive rats; 1.0 mg/kg, oral", "value": -15, "unit": "%"}, {"measurement": "peak percentage fall in B.P.", "setting": "DOCA hypertensive rats; 5.0 mg/kg, oral", "value": -25, "unit": "%"}, {"measurement": "peak percentage fall in B.P.", "setting": "DOCA hypertensive rats; 20.0 mg/kg, oral", "value": -14, "unit": "%"}, {"measurement": "maximum hypotensive effect following 20 mg/kg (in words)", "setting": "DOCA hypertensive rats; 20 mg/kg, p.o. versus 5 mg/kg, p.o.", "value": "less than that produced by 5 mg/kg, p.o. compound B"}, {"measurement": "dose-relation of the falls in blood pressure (in words)", "setting": "DOCA hypertensive rats; 1-20 mg/kg, p.o.", "value": "not dose-related"}, {"measurement": "pressor responses / postsynaptic α-adrenoreceptor agonist activity (in words)", "setting": "[8]", "value": "pressor responses in the pithed rat were seen"}]}, {"smiles": "CN1CCN2c3ccccc3Cc3ccccc3C2C1", "note": "(stereo not drawn) [Mianserin HCl]", "values": [{"measurement": "i.v. dose of antagonist causing 50% reversal of clonidine block on vas deferens", "setting": "[2]", "value": "> 4.4", "unit": "mg/kg"}]}, {"smiles": "CN1CCN2c3ccccc3Cc3ccccc3C2C1", "note": "(stereo not drawn) [Mianserin]", "values": [{"measurement": "maximum reversal of the inhibitory effects of clonidine on hypogastric nerve stimulation", "setting": "[2]; cumulative i.v. dose 4.4 mg/kg", "value": 36, "unit": "%"}]}, {"smiles": "Cc1ccc(N(CC2=NCCN2)c2cccc(O)c2)cc1", "note": "[Phentolamine mesylate]", "values": [{"measurement": "i.v. dose of antagonist causing 50% reversal of clonidine block on vas deferens", "setting": "[2]", "value": 0.12, "unit": "mg/kg"}, {"measurement": "Intravenous dose of antagonist causing 50% reversal of guanabenz block of anococcygeus muscle", "setting": "[4]", "value": "> 1.4", "unit": "mg/kg"}]}, {"smiles": "Cc1ccc(N(CC2=NCCN2)c2cccc(O)c2)cc1", "note": "[Phentolamine]", "values": [{"measurement": "presynaptic α-adrenoreceptor antagonist activity (in words)", "setting": "[4]; cumulative i.v. dose of 1.4 mg/kg", "value": "devoid of presynaptic α-adrenoreceptor antagonist activity"}, {"measurement": "blood pressure effect (in words)", "setting": "DOCA hypertensive rats; 1.0 mg/kg, oral", "value": "reduced blood pressure"}, {"measurement": "peak percentage fall in B.P.", "setting": "DOCA hypertensive rats; 1.0 mg/kg, oral", "value": -16, "unit": "%"}, {"measurement": "peak percentage fall in B.P.", "setting": "DOCA hypertensive rats; 5.0 mg/kg, oral", "value": -24, "unit": "%"}, {"measurement": "heart rate effect (in words)", "setting": "DOCA hypertensive rats; 20 mg/kg, oral", "value": "reflexly elevated"}, {"measurement": "peak percentage fall in B.P.", "setting": "DOCA hypertensive rats; 20.0 mg/kg, oral", "value": -41, "unit": "%"}, {"measurement": "heart rate effect (in words)", "setting": "DOCA hypertensive rats; two smaller doses (1.0 and 5.0 mg/kg), oral", "value": "not greatly affected"}]}, {"smiles": "COC(=O)[C@@H]1[C@H]2C[C@H]3c4[nH]c5ccccc5c4CCN3C[C@@H]2CC[C@@H]1O", "note": "[Yohimbine HCl]", "values": [{"measurement": "i.v. dose of antagonist causing 50% reversal of clonidine block on vas deferens", "setting": "[2]", "value": 0.86, "unit": "mg/kg"}, {"measurement": "Intravenous dose of antagonist causing 50% reversal of guanabenz block of anococcygeus muscle", "setting": "[4]", "value": 0.280, "unit": "mg/kg"}]}, {"smiles": "COC(=O)[C@@H]1[C@H]2C[C@H]3c4[nH]c5ccccc5c4CCN3C[C@@H]2CC[C@@H]1O", "note": "[Yohimbine]", "values": [{"measurement": "reversal of the inhibitory action of clonidine on the anococcygeus muscle", "setting": "[9]", "value": "fully reversed"}]}]}
